{"source": "patent US20250170237A1", "about": "“MURAMYL DIPEPTIDES AND PROCESS FOR PREPARATION THEREOF” (priority 2022, published 2025)", "key": {"[1]": {"tested_on": "OVA antigen", "test": "IgG titer with OVA antigen (indirect ELISA, immunized mice)", "type": "in vivo, BALB/c mice", "procedure": "(§1) Adjuvanticity of 15b was evaluated using antigens (OVA, HBsAg, DENV and JEV) in BALB/c mice model—From the immunized mice retro-orbital sampling or retro-orbital blood was collected on 14th and 28th day before sacrifice. Serum was separated by centrifugation at 12,500 rpm for 5 min. Transferred to a clean centrifuge tube and store at −80 until used.\n(§2) The plates were coated with antigen in carbonate buffer. Plates were incubated at 4° C. overnight. They were then washed 3 times with PBS/Tween, and non-specific binding sites were blocked by adding 200 μl of blocking solution. Plates were incubated at room temperature for 1 h. Then 3 times wash is done, diluted standards and samples to desired concentrations in blocking solution were added to the plates. Incubate at 37° C. for 1 h or at 4° C. overnight. Plates were washed 3 times with PBS/Tween. Avidin-Horseradish Peroxidase (Av-HRP) was diluted and added. Incubated at room temperature for 30 min. Plates were washed 3 times with PBS/Tween. OPD Substrate was added and plates were incubated at room temperature (4-30 min) for colour development. The colour reaction was stopped by adding 50 μl of stop solution. Optical density (OD) was read at 492 nm."}, "[2]": {"tested_on": "HBsAg antigen", "test": "IgG titer with HBsAg antigen", "type": "in vivo, BALB/c mice", "procedure": "as §1, §2"}, "[3]": {"tested_on": "cytokines IFN, IL-1, IL-4, IL-6, IL-10", "test": "Post HBsAg immunization In vivo cytokine assay", "set-up": "species or system BALB/c mice", "procedure": "(§3) ELISA was carried out by Bio Legend capture and detection antibodies. Briefly, 96-well plates were coated with capture antibody dissolved in coating buffer per well incubated overnight at 4° C. Wells were blocked with BSA for 1 h at RT. After blocking, 50 μL/well of serum was added and incubated for 3 h. After washing, Biotinylated secondary antibody was added along with enzyme. Plates were incubated for 1 h at RT. Then plates were washed and TMB substrate solution was added. The reaction was stopped after 30 min with a stopping solution. Absorbance was measured at 450 nm with a plate reader."}, "[4]": {"tested_on": "CD4, CD8", "test": "Post HBsAg immunization Immunophenotyping", "type": "in vivo, BALB/c mice", "procedure": "(§4) Staining for extracellular markers Staining was as per the manufacturer's protocol and run on a BD FACS Verse flow cytometer. Compensation was established using BD Biosciences compensation beads. Post-acquisition flow cytometry analysis was performed using FACS Suite software."}, "[5]": {"tested_on": "CD4, CD8, CD19, CD80, CD 28", "test": "Post Denv immunization Immunophenotyping", "type": "in vivo, BALB/c mice", "procedure": "as §4"}, "[6]": {"tested_on": "JEV antigen", "test": "IgG titer with JEV antigen", "type": "in vivo, BALB/c mice", "procedure": "as §1, §2"}, "[7]": {"tested_on": "cytokines IL-1, IL-2, IL-4, IFN, IL-6, IL-10, IL-12, TNF", "test": "Post JEV immunization In vivo cytokine assay", "set-up": "species or system BALB/c mice", "procedure": "as §3"}, "[8]": {"tested_on": "splenocytes", "test": "Post JEV immunization In vivo splenocyte proliferation assay", "set-up": "species or system BALB/c mice", "conditions": "UT = 100 (Table 15)", "procedure": "Splenocytes were seeded into 96-well flat-bottom microtiter plates having 1×10^5 cells/well in […] complete RPMI-1640 medium. Plates were incubated at 37° C. with 5% CO2. After 48 h, […] MTT solution (5 mg/mL) was added to each well and left to incubate for next 4 h. Untransformed MTT ([…]) was removed from each well by pipetting. A total of […] of DMSO was added and the absorbance was evaluated in an ELISA reader at 630 nm on the multimode reader (Infinite 200 Pro, Switzerland) after 15 min"}, "[9]": {"tested_on": "CD4, CD8", "test": "Post JEV immunization Immunophenotyping", "type": "in vivo, BALB/c mice", "procedure": "as §4"}, "[10]": {"tested_on": "antigens (OVA, HBsAg, DENV and JEV)", "test": "Serum anti-antigens (OVA, HBsAg, DENV and JEV) IgG titer, overall statements", "type": "in vivo, BALB/c mice", "conditions": "15b against Ovalbumin, DEV, 15f against JEV", "procedure": "as §1, §2"}, "[11]": {"test": "In vitro Hemolysis assay"}}, "data": [{"compound": "C[C@H](NC(=O)[C@@H](C)O[C@H]1[C@H](O)[C@@H](CO)OC(O)[C@@H]1NC(=O)C1CC1)C(=O)N[C@H](CCC(=O)O)C(N)=O", "note": "(stereo partly drawn) [15b, (4R)-5-amino-4-((2S)-2-((2R)-2-(((3R,4R, 5S, 6R)-3-(cyclopropanecarboxamido)-2,5-dihydroxy-6-(hydroxymethyl)tetrahydro-2H-pyran-4-yl)oxy)propanamido)propanamido)-5-oxopentanoic acid]", "values": [{"measurement": "IgG titer with OVA antigen", "setting": "[1]; dose 1 μg", "value": "1600-124000"}, {"measurement": "IgG titer with OVA antigen", "setting": "[1]; dose 10 μg", "value": "204800-416000"}, {"measurement": "IgG titer with OVA antigen", "setting": "[1]; dose 100 μg", "value": "115000-320000"}, {"measurement": "IgG titer with HBsAg antigen", "setting": "[2]; dose 1 μg", "value": "51200-102400"}, {"measurement": "IgG titer with HBsAg antigen", "setting": "[2]; dose 10 μg", "value": "102400-240000"}, {"measurement": "IFN", "setting": "[3]; dose 1 μg", "value": 80.6, "unit": "pg/mL"}, {"measurement": "IFN", "setting": "[3]; dose 10 μg", "value": 75.07, "unit": "pg/mL"}, {"measurement": "IFN", "setting": "[3]; dose 100 μg", "value": 68.6, "unit": "pg/mL"}, {"measurement": "CD4", "setting": "[4]; dose 1 μG", "value": "24.48-29.48"}, {"measurement": "CD8", "setting": "[4]; dose 1 μG", "value": "12.71-19.48"}, {"measurement": "CD4", "setting": "[4]; dose 10 μG", "value": "25.47-29.48"}, {"measurement": "CD8", "setting": "[4]; dose 10 μG", "value": "12.67-18.54"}, {"measurement": "CD4", "setting": "[5]; dose 1 μG", "value": "36.26-41.8"}, {"measurement": "CD8", "setting": "[5]; dose 1 μG", "value": "22.26-29.48"}, {"measurement": "CD19", "setting": "[5]; dose 1 μG", "value": "30.57-35.48"}, {"measurement": "CD 28", "setting": "[5]; dose 1 μG", "value": "3.65-7.48"}, {"measurement": "CD80", "setting": "[5]; dose 1 μG", "value": "6.3-8.4"}, {"measurement": "CD4", "setting": "[5]; dose 10 μG", "value": "38.74-43.84"}, {"measurement": "CD8", "setting": "[5]; dose 10 μG", "value": "22.92-27.84"}, {"measurement": "CD19", "setting": "[5]; dose 10 μG", "value": "36.19-41.28"}, {"measurement": "CD 28", "setting": "[5]; dose 10 μG", "value": "3.68-8.41"}, {"measurement": "CD80", "setting": "[5]; dose 10 μG", "value": "6.11-11.4"}, {"measurement": "IgG titer with JEV antigen", "setting": "[6]; dose 1 μg (Table 13)", "value": "64000-128000"}, {"measurement": "IgG titer with JEV antigen", "setting": "[6]; dose 10 μg (Table 13)", "value": "8000-16000"}, {"measurement": "IgG titer with JEV antigen", "setting": "[6]; dose 100 μg (Table 13)", "value": "40000-80000"}, {"measurement": "IFN", "setting": "[7]; dose 1 μg (Table 14)", "value": "4.21 to 6.37", "unit": "pg/mL"}, {"measurement": "IL-2", "setting": "[7]; dose 1 μg (Table 14)", "value": "13.77 to 19.81", "unit": "pg/mL"}, {"measurement": "IL-6", "setting": "[7]; dose 1 μg (Table 14)", "value": "157.05 to 160.47", "unit": "pg/mL"}, {"measurement": "IL-10", "setting": "[7]; dose 1 μg (Table 14)", "value": "48 to 51.02", "unit": "pg/mL"}, {"measurement": "IFN", "setting": "[7]; dose 10 μg (Table 14)", "value": "11.03 to 13.05", "unit": "pg/mL"}, {"measurement": "IL-1", "setting": "[7]; dose 10 μg (Table 14)", "value": "61.9 to 67.25", "unit": "pg/mL"}, {"measurement": "IL-2", "setting": "[7]; dose 10 μg (Table 14)", "value": "12.17 to 15.34", "unit": "pg/mL"}, {"measurement": "IL-6", "setting": "[7]; dose 10 μg (Table 14)", "value": "233.3 to 245.27", "unit": "pg/mL"}, {"measurement": "IL-10", "setting": "[7]; dose 10 μg (Table 14)", "value": "52.3 to 54.28", "unit": "pg/mL"}, {"measurement": "IFN", "setting": "[7]; dose 100 μg (Table 14)", "value": "3.06 to 6.48", "unit": "pg/mL"}, {"measurement": "IL-1", "setting": "[7]; dose 100 μg (Table 14)", "value": "70.1 to 73.48", "unit": "pg/mL"}, {"measurement": "IL-2", "setting": "[7]; dose 100 μg (Table 14)", "value": "23.97 to 27.45", "unit": "pg/mL"}, {"measurement": "IL-6", "setting": "[7]; dose 100 μg (Table 14)", "value": "279.85 to 281.47", "unit": "pg/mL"}, {"measurement": "IL-10", "setting": "[7]; dose 100 μg (Table 14)", "value": "57.5 to 59.48", "unit": "pg/mL"}, {"measurement": "Splenocyte proliferation, Con A", "setting": "[8]; dose 1 μg", "value": "117.5-119.48"}, {"measurement": "Splenocyte proliferation, LPS", "setting": "[8]; dose 1 μg", "value": "118.2-120.01"}, {"measurement": "Splenocyte proliferation, Normal", "setting": "[8]; dose 1 μg", "value": "118.6-120.48"}, {"measurement": "Splenocyte proliferation, Restimulated", "setting": "[8]; dose 1 μg", "value": "116.5-119.27"}, {"measurement": "Splenocyte proliferation, Con A", "setting": "[8]; dose 10 μg", "value": "124.55-126.85"}, {"measurement": "Splenocyte proliferation, LPS", "setting": "[8]; dose 10 μg", "value": "104.6-109.57"}, {"measurement": "Splenocyte proliferation, Normal", "setting": "[8]; dose 10 μg", "value": "111.38-115.78"}, {"measurement": "Splenocyte proliferation, Restimulated", "setting": "[8]; dose 10 μg", "value": "114.2-117.24"}, {"measurement": "CD4", "setting": "[9]; dose 1 μG", "value": "39.75-42.58"}, {"measurement": "CD8", "setting": "[9]; dose 1 μG", "value": "14.56-19.54"}, {"measurement": "CD4", "setting": "[9]; dose 10 μG", "value": "41.86-43.28"}, {"measurement": "CD8", "setting": "[9]; dose 10 μG", "value": "14.78-17.25"}, {"measurement": "antibody titer, conclusion in words", "setting": "[10]", "value": "significant antibody titer"}, {"measurement": "% Hemolysis", "setting": "[11]; erythrocytes (red blood cells)", "value": "2.302 ± 0.147", "unit": "%"}, {"measurement": "toxicity and hemolysis, conclusion in words", "setting": "[11]; even at higher concentrations", "value": "non-toxic and non-hemolytic"}]}]}
